From patent US20210405025A1, “IDENTIFYING COMPOUNDS FOR TREATING CANCER AND USE THEREOF” (THE UAB RESEARCH FOUNDATION, priority 2018, published 2021)
Structures can show the parent of a compound that is named as a salt. Where two headings read alike, the source gives them in different places. Starred links: 1 amine or outer side, 2 acyl side, 3 side chain; linkers in the order of their positions; H or OH if unused. Positions of bridges follow the written chain, without caps; N, C: chain ends. Non-standard residues stand in square brackets, D forms with d. Residues, ends and D or L forms follow the SMILES beside them. Chains are numbered I, II in the order given. Actinocin(9to1) = Cc1c2oc3c(C)ccc(C(=O)[*:1])c3nc-2c(C(=O)[*:2])c(N)c1=O; NMeV = CN[C@H](C(=O)O)C(C)C; Sar = CNCC(=O)O

Test system: relapsed AML cells
Test: Drug sensitivity assay, 1,536-well, 3-day culture with individual approved drugs at 10 μM, viability by alamarBlue
Format: cell-based, human
Experimental: Drug sensitivity assays were performed using a 1,536-well platform where all cells and reagents were deposited in wells using an acoustic liquid handling unit that is highly accurate for dispensing of nanoliter volumes of liquid. […] After dispensing the cells into the wells, an independent drug at a known concentration is added to each well and incubated with the cells. After three days, the percentage of live cells in each well is determined to assess the killing efficiency of each compound. […] Cell viability assays are known to those of skill in the art. See, for example, Pemovska et al., Individualized systems medicine strategy to tailor treatments for patients with chemorefractory acute myeloid leukemia. Cancer Discovery 3:1416-1429, 2013; Pabst et al., Identification of small molecules that support human leukemia stem cell activity ex vivo. Nature Methods 11:436-442, 2014; Baccelli et al., A novel approach for the identification of efficient combination therapies in primary human acute myeloid leukemia specimens. Blood Cancer Journal 7:e529, 2017. In studies described herein, the 1,536-well format was utilized, which allowed for use of four times fewer cells as well as less drug and media components due to the small assay volume of 5 microliters. […] Other compounds like CellTiter-Glo (Promega, Madison, Wis.) are equally appropriate reagents for determining cell viability.
Conditions for the drug screening assays were as described in Pabst et al., Identification of small molecules that support human leukemia stem cell activity ex vivo, Nature Methods 11:436-442, 2014). Using this protocol, cells were cultured in Iscove's Modified Dulbecco's Medium (IMDM), 15% BIT (bovine serum albumin, insulin, transferrin; Stem Cell Technologies 09500 (Vancouver, Calif.)), 100 ng/ml SCF (Shenandoah 100-04 (Warwick, Pa.)), 50 ng/ml FLT3L (Shenandoah 100-21), 20 ng/ml IL-3 (Shenandoah 100-80), 20 ng/ml G-CSF (Shenandoah 100-72), 10^-4 M β-mercaptoethanol, gentamicin (50 μg/ml) and ciprofloxacin (10 μg/ml).
Cells were removed from liquid nitrogen and placed in a 37° C. bath, just until thawed. For 1,536-well screens utilizing 6,000 wells about 100 million cells were thawed. The volume was doubled with pre-warmed culture media and placed on ice for about one to two minutes. The cells were brought to a final volume of about 8 to 10 mL before spinning down at 1,100 rpm for 5 min at 10° C. The pelleted cells were resuspended in 10 mL of culture media and plated in a tissue-culture treated T75 flask at a density of 1 to 2 million cells/ml. The cells were cultured overnight prior to fluorescence-activated cell sorting of viable cells on the following day.
After cells were cultured overnight, a cell scraper was used to remove any cells that adhered to the plastic. The cells were gently pipetted up and down to break up aggregates. Then, the entire volume was transferred to a 50 mL conical tube through a 70 micron cell strainer to remove cell clumps. The T75 flask was rinsed and scraped with about 10 mL HBSS and transferred to the same 50 mL conical tube through the strainer. The harvested cells were spun down at 1,100 rpm for 5 min at 10° C. The cells were then resuspendd in about 300-500 microliters FACS buffer (HBSS+2% FBS+1× propidium iodide) and transferred to a FACS tube. The tube was placed on ice and viable cells that are forward- and side-scatter gated on viable myeloid blasts were sorted by FACS (the scatter gate should exclude small lymphocytes, large myeloid cells, and debris). After sorting the required number of viable cells, the cells were spun down at 1,100 rpm for 5 min at 10° C. and subsequently resuspended at 4,000-4,500 cells per 5 microliter volume of complete culture media with growth factors and penicillin/streptomycin.

[1] = number of relapsed AML cases out of 18 tested with >70% cell death, 10 μM, 3-day culture

Row | Molecule | #Cases >70% cell death [1] | #Cases >70% cell death
1 | Cc1c2oc3c(C)ccc(C(=O)N[C@@H]4C(=O)N[C@H](C(C)C)C(=O)N5CCC[C@H]5C(=O)N(C)CC(=O)N(C)[C@@H](C(C)C)C(=O)O[C@@H]4C)c3nc-2c(C(=O)N[C@@H]2C(=O)N[C@H](C(C)C)C(=O)N3CCC[C@H]3C(=O)N(C)CC(=O)N(C)[C@@H](C(C)C)C(=O)O[C@@H]2C)c(N)c1=O [DACTINOMYCIN] (I: T[dV]P[Sar][NMeV] / II: T[dV]P[Sar][NMeV]; ester I:1-I:C, II:1-II:C; linker I:N-II:N via Actinocin(9to1)) | 17 | –
2 | Cc1ccc(C(=O)Nc2ccc(CN3CCN(C)CC3)c(C(F)(F)F)c2)cc1C#Cc1cnc2cccnn12 [PONATINIB] | 18 | –
3 | Clc1ccc(COC(Cn2ccnc2)c2ccc(Cl)cc2Cl)c(Cl)c1 (stereo not drawn) [MICONAZOLE] | 1 | –
4 | Cn1cncc1[C@@](N)(c1ccc(Cl)cc1)c1ccc2c(c1)c(-c1cccc(Cl)c1)cc(=O)n2C [TIPIFARNIB] | 7 | –
5 | Cn1cnc([N+](=O)[O-])c1Sc1ncnc2nc[nH]c12 [AZATHIOPRINE] | 10 | –
6 | COc1cccc2c1C(=O)c1c(O)c3c(c(O)c1C2=O)C[C@@](O)(C(=O)CO)C[C@@H]3O[C@H]1C[C@H](N)[C@@H](O)[C@H](C)O1 [EPIRUBICIN] | 18 | –
7 | CC[C@@]1(O)C(=O)OCc2c1cc1n(c2=O)Cc2cc3cc(O)ccc3nc2-1 [10-HYDROXYCAMPTOTHECIN] | 12 | –
8 | GRAMICIDIN [GRAMICIDIN (GRAMICIDIN A SHOWN)] | 9 | –
9 | COC(=O)C1=C(C)NC(C)=C(C(=O)OCCCN2CCC(c3ccccc3)(c3ccccc3)CC2)[C@H]1c1cccc([N+](=O)[O-])c1 [NIGULDIPINE] | – | 12
10 | OCCN(CCO)c1nc(N2CCCCC2)c2nc(N(CCO)CCO)nc(N3CCCCC3)c2n1 [DIPYRIDAMOLE] | 2 | –
11 | CC(=O)c1ccc2c(c1)N(CCCN(C)C)c1ccccc1S2 [ACEPROMAZINE MALEATE] | 2 | –
12 | Cc1ccc2nc(N)[nH]c(=O)c2c1Sc1ccncc1 [NOLATREXED DIHYDROCHLORIDE] | 1 | –
13 | CN[C@@H]1[C@@H](O)[C@@H](O[C@@H]2[C@@H](O)[C@H](O[C@H]3OC(CN)=CC[C@H]3N)[C@@H](N)C[C@H]2N)OC[C@]1(C)O [SISOMICIN] | 10 | –
14 | Nc1nc2nc[nH]c2c(=S)[nH]1 [TIOGUANINE (6-thioguanine), TIOGUANINE] | 16 | –
15 | CC(C)C(=O)Nc1ccc([N+](=O)[O-])c(C(F)(F)F)c1 [FLUTAMIDE] | 2 | –
16 | O=C1NCCc2[nH]c(-c3ccncc3)cc21 [PHA-767491] | 18 | –
17 | CC(C)Oc1ccc(C(=O)N[C@H](CNC(=O)CN(C)C)Cc2ccc(-c3cn4cccc([C@H](C)O)c4n3)cc2)cc1Cl [GSK923295] | 8 | –
18 | O=C(O)[C@]1(Cc2cccc(Nc3nccs3)n2)CC[C@@H](Oc2cccc(Cl)c2F)CC1 [VX-689 (MK5108)] | 1 | –
19 | CCCCCCCCCCCCCCCC[N+](C)(C)C.[Br-] [CETRIMONIUM BROMIDE] | 17 | –
20 | CCOC(=O)/C=C(C)/C=C/C=C(C)/C=C/c1c(C)cc(OC)c(C)c1C [ETRETINATE] | 1 | –
21 | ABAMECTIN | 18 | –
22 | CN1CCN(CCCN2c3ccccc3Sc3ccc(Cl)cc32)CC1 [PROCHLORPERAZINE] | 6 | –
23 | CCc1ccc(OCc2ccccc2C(=O)Nc2ccc3nc(C)cc(N)c3c2)cc1 [JTC-801] | 18 | –
24 | CCC(C)(C)c1ccc(CC(C)CN2C[C@@H](C)O[C@@H](C)C2)cc1 (stereo partly drawn) [AMOROLFINE] | 9 | –
25 | C[C@@H]1O[C@@H](O[C@@H]2C=C3CC[C@@H]4[C@H](CC[C@]5(C)[C@@H](c6ccc(=O)oc6)CC[C@]45O)[C@@]3(C)CC2)[C@H](O)[C@H](O)[C@H]1O [PROSCILLARIDIN] | 18 | –
26 | O=C(Nc1ccccc1Br)N[C@@H]1CCN(c2ccc(C(F)(F)F)cn2)C1 [SB-705498] | 1 | –
27 | CN(C(=O)CN(CCO)CC(=O)N(C)C(C)(C)Cc1ccccc1)C(C)(C)Cc1ccccc1 [OXETHAZAINE] | 1 | –

Row | Molecule | #Cases >70% cell death [1] | #Cases >70% cell death
28 | CN(C)c1ccc(C(=C2C=CC(=[N+](C)C)C=C2)c2ccc(N(C)C)cc2)cc1 [GENTIAN VIOLET] | 18 | –
29 | Cc1nc2ccccc2n1Cc1ccc(Cl)cc1 [CHLORMIDAZOLE] | 1 | –
30 | COc1cccc([C@@H](C)NCCCc2ccccc2Cl)c1 [TECALCET HYDROCHLORIDE] | 1 | –
31 | C[C@H]1O[C@@H](O[C@H]2[C@@H](O)C[C@H](O[C@H]3[C@@H](O)C[C@H](O[C@H]4CC[C@@]5(C)[C@H](CC[C@@H]6[C@@H]5C[C@@H](O)[C@]5(C)[C@@H](C7=CC(=O)OC7)CC[C@]65O)C4)O[C@@H]3C)O[C@@H]2C)C[C@H](O)[C@@H]1O [DIGOXIN] | 18 | –
32 | Cn1nnc2c(C(N)=O)ncn2c1=O [TEMOZOLAMIDE] | 14 | –
33 | CC(C)(Sc1cc(C(C)(C)C)c(O)c(C(C)(C)C)c1)Sc1cc(C(C)(C)C)c(O)c(C(C)(C)C)c1 [PROBUCOL] | 4 | –
34 | CCNC1(C(N)=O)CCN(c2ncnc3c2nc(-c2ccccc2Cl)n3-c2ccc(Cl)cc2)CC1 [CP-945] | 1 | –
35 | N[C@@H](Cc1ccc(N(CCCl)CCCl)cc1)C(=O)O | 4 | –
36 | CC(=O)O[C@@]12CO[C@@H]1C[C@H](O)[C@@]1(C)C(=O)[C@H](O)C3=C(C)[C@@H](O)C[C@@](O)([C@@H](OC(=O)c4ccccc4)[C@H]21)C3(C)C [10-DAB] | 1 | –
37 | FC(F)(F)c1ccc(/C=C/c2nc(COc3ccc(CCCCn4ccnn4)cc3)co2)cc1 [MUBRITINIB] | 1 | –
38 | OC1(c2ccc(Cl)c(C(F)(F)F)c2)CCN(CCCC(c2ccc(F)cc2)c2ccc(F)cc2)CC1 [PENFLURIDOL] | 14 | –
39 | CCCCCCCCOc1ccccc1C(=O)Nc1ccc(C(=O)OCC[N+](C)(CC)CC)cc1 [OTILONIUM BROMIDE] | 4 | –
40 | Cc1cccc(C)c1N=C1NCCCS1 [XYLAZINE] | 4 | –
41 | N[C@@H]1CONC1=O [D-CYCLOSERINE] | 1 | –
42 | Cc1c(-c2ccc(O)cc2)n(Cc2ccc(OCCN3CCCCCC3)cc2)c2ccc(O)cc12 [BAZEDOXIFENE HCL] | 8 | –
43 | COc1cc(CNC(=O)CCCC/C=C/C(C)C)ccc1O [CAPSAICIN] | 1 | –
44 | CC(C)C[C@H](NC(=O)[C@H](Cc1ccccc1)NC(=O)c1cnccn1)B(O)O [BORTEZOMIB] | 18 | –
45 | N#CCNC(=O)c1ccc(-c2ccnc(Nc3ccc(N4CCOCC4)cc3)n2)cc1 [CYT387] | 14 | –
46 | CC(=O)Nc1ccc(C(=O)Nc2ccccc2N)cc1 [TACEDINALINE] | 4 | –
47 | COc1ccc2c(c1)CN(C(=O)CCN1CCC(Cc3ccccc3)CC1)CCS2 [K201] | 4 | –
48 | CCCOc1ccc(C(=O)OCCN(CC)CC)cc1N [PROPARACAINE] | 1 | –
49 | C=CC(=O)N1CCC[C@@H](n2nc(-c3ccc(Oc4ccccc4)cc3)c3c(N)ncnc32)C1 [IBRUTINIB] | 2 | –
50 | CC(C)N1CCN(c2ccc(OCC3COC(Cn4cncn4)(c4ccc(Cl)cc4Cl)O3)cc2)CC1 (stereo not drawn) [TERCONAZOLE] | 7 | –
51 | C[C@H]1C[C@H]2[C@@H]3CCC4=CC(=O)C=C[C@]4(C)[C@@]3(F)[C@@H](O)C[C@]2(C)[C@@]1(O)C(=O)CO [BETAMETHASONE] | 1 | –
52 | Fc1ccc(C(c2ccc(F)cc2)N2CCN(C/C=C/c3ccccc3)CC2)cc1 [FLUNARIZINE] | 3 | –
53 | CCN(CCCc1ccccc1)CCCc1ccccc1 [ALVERINE CITRATE] | 4 | –
54 | CCC(C)n1ncn(-c2ccc(N3CCN(c4ccc(OCC5COC(Cn6cncn6)(c6ccc(Cl)cc6Cl)O5)cc4)CC3)cc2)c1=O (stereo not drawn) [ITRACONAZOLE] | 6 | –
